Experiments:
[1] = system: experimental autoimmune encephalomyelitis; test: Autoimmune encephalomyelitis (EAE) model; type: in vivo, rats; details: when dosed alone
Method: METHOD. Autoimmune Encephalomyelitis (EAE) Model. EAE is induced in rats by immunization against 25 μg of guinea pig myelin basic protein (MBP) formulated with CFA containing 1 mg of grounded Mycobacterium tuberculosis H37Ra. Pertussis toxin is given intraperitoneally (1 μg/rat) to enhance the organ-specific autoimmunity. Starting 8 days after induction, rats are divided into […]: (1) untreated control (n=8), (2) test compound (n=7), and (3) test compound plus competitor compound (n=7), such as EC0923 competition. All treatments start on day 8 after EAE induction. The animals in the EAE control group are left untreated. […] The clinical severity of EAE is monitored on a daily basis and graded on a scale of 0 to 5 per animal. The clinical signs of ascending paralysis of EAE rats are divided into a 0-5 scale: 0=No disease, 0.5=distal limp tail, 1=limp tail, 2=mild paraparesis; ataxia-weakened hind limbs, 3=moderate paraparesis; hind limbs paresis, 4=complete hind limb paralysis, 5=complete hind limb paralysis and incontinence (euthanasia). On day 16, the animals are euthanized and brain and spinal cords are fixed in formalin for histology.

[2] = Relative whole animal toxicity in folate deficient rats; type: in vivo; details: 3 μmol/kg i.v. BIW, 2 weeks
Method: EXAMPLE. […] Test compounds are administered i.v. at equivalent doses to folate deficient rats.

[3] = Plasma stability / free drug release after s.c. dose (EC1496 vs EC0746); type: in vivo, rats; details: 500 nmol/kg s.c.
Method: METHOD. Human serum stability. Compounds described herein are tested in human serum for stability using conventional protocols and methods. Briefly, test compound is administered to the test animal, such as by subcutaneous injection. The plasma concentration of the conjugate, and optionally one or more metabolites, is monitored over time. The results are graphed to determine Cmax, Tmax, half-life, and AUC for the test compound and metabolites.
EXAMPLE. […] EC1495 and EC0746 (comparator compound) are each administered at 500 nmol/kg by subcutaneous injection. The plasma concentration of the conjugate and the metabolites (aminopterin and aminopterin hydrazide) are monitored over time. […] As also shown in the following table, free drug is released as the parent aminopterin and the hydrazide derivative (EC0470).

KB tumors = test: Inhibition of tumor growth, s.c. KB tumors in nu/nu mice; type: in vivo; details: 1.0 μmol/kg (only 2 doses due to toxicity), TIW, 2 weeks
Method: METHOD. Inhibition of Tumor Growth in Mice. […] For tumor cell inoculation, 1×10^6 M109 cells (a syngeneic lung carcinoma) in Balb/c strain, or 1×10^6 KB cells in nu/nu strain, in 100 μL are injected in the subcutis of the dorsal medial area (right axilla).
METHOD. Toxicity as Measured by Weight Loss. The percentage weight change of the test animals is determined on selected days post-tumor inoculation (PTI), and during dosing. The results are graphed.

[4] = Cytotoxicity of unconjugated tubulysins to cells in culture; type: cell-based; details: cells in culture (cell line not given); read-out: typical IC50, cytotoxic to cells in culture
[5] = Pharmacokinetic biodistribution of 3H-EC1669 and 3H-methotrexate; type: in vivo, Balb/c mice
Method: METHOD. Pharmacokinetic biodistribution. Studies in this section included a minimum of 3 test animals (mice) per time point. The pharmacokinetic biodistribution of test compound, such as ^3H-EC1669 (label on the drug), compared to positive control, such as ^3H-methotrexate (^3H-MTX), is observed in female Balb/c mice on folate-deficient diet. Compounds are administered as a single subcutaneous (SC) injection at 500 nmol/kg. Whole blood (>300 μL) along with ˜100 mg each of various tissues of interests are collected at various time points (such as 10 min, 30 min, 1 h, 2 h, 4 h, 8 h, 12 h, 24 h, and 72 h). The blood samples are placed in BD microtainer tubes (heparin) and centrifuged (4,000 g×3 min, 4° C.) to separate plasma (>100 μL). The remaining red blood cell (RBC) mass is washed 2× with phosphate buffered saline (PBS, pH 7.4) to obtain RBCs. The collected tissues are weighed and processed to determine ^3H-EC1669 and ^3H-MTX distribution: plasma, RBC, heart, lung, liver (the smallest lobe), spleen, kidney (1), intestine (above cecum), fecal material (from colon), muscle, and brain.

[6] = Renal/hepatic secretion study; type: in vivo, mice; details: 24 h post-dose, s.c.
Method: In a subsequent renal/hepatic secretion study, mice are housed in metabolic cages with a 6-h fast before subcutaneous administration of ^3H-EC1669 or ^3H-MTX. At 24 h post-dose, ˜14% more radioactivity is found in the pooled urine of ^3H-EC1669 dosed animals than in ^3H-MTX dosed animals. In contrast, twice as much radioactivity was found in the pooled feces of ^3H-MTX dosed animals than in EC1669 dosed animals. […] MTX reportedly causes hepatotoxicity as a major side effect, especially after long-term use. Without being bound by theory, it is believed herein that the preferential renal clearance of the compounds described herein will lead to fewer side effects such as hepatotoxicity.

[7] = system: KB-CR2000 (cisplatin resistant) tumors; test: Cisplatin-resistant KB-CR2000 tumor model; type: in vivo, mice; details: cisplatin 3 mg/kg twice per week, 2 weeks
[8] = 10 min post-dose, 500 nmol/kg s.c.

N=c1[nH]c(N)nc2ncc(CNc3ccc(C(=O)N[C@@H](CCC(=O)NNC(=O)OCCSSC[C@@H](NC(=O)[C@H](CCC(=O)NC[C@H](O)[C@@H](O)[C@H](O)[C@H](O)CO)NC(=O)[C@@H](CCC(=O)O)NC(=O)[C@H](CCC(=O)NC[C@H](O)[C@@H](O)[C@H](O)[C@H](O)CO)NC(=O)[C@@H](CCC(=O)O)NC(=O)[C@H](CCC(=O)NC[C@H](O)[C@@H](O)[C@H](O)[C@H](O)CO)NC(=O)CC[C@@H](NC(=O)c4ccc(NCc5cnc6nc(N)[nH]c(=O)c6n5)cc4)C(=O)O)C(=O)O)C(=O)O)cc3)nc12 [EC1496]
treatment-related weight loss [1]: not observed
toxicity relative to comparative example EC0746 [2]: less toxic
Cmax of conjugate, comparison [3]: higher Cmax than EC0746
half-life, comparison with EC0746 [3]: shorter half-life
Free drug released (%): AMT ([3]; plasma): 5.13%
Free drug released (%): AMT-hydrazide (EC0470) ([3]; plasma): 3.15%
Free drug released (%): Total ([3]; plasma): 8.28%

CCCC(=O)OCN(C(=O)[C@@H](NC(=O)[C@H]1CCCCN1C)C(C)CC)[C@H](C[C@@H](OC(C)=O)c1nc(C(=O)N[C@@H](Cc2ccc(O)cc2)C[C@H](C)C(=O)NN)cs1)C(C)C (some centres unmarked) [TubB-H, reference compound]
CR (KB tumors): 0%
Cures (KB tumors): 0%
PR (KB tumors): 0%
Toxicity: Avg. Weight Loss (KB tumors): >15%
Toxicity: Deaths (KB tumors): 20%
IC50 [4]: ~1 nM

N=c1[nH]c(N)nc2ncc(CNc3ccc(C(=O)N[C@@H](CCC(=O)NNC(=O)OCCSSC[C@@H](NC(=O)[C@H](CCC(=O)NC[C@H](O)[C@@H](O)[C@H](O)[C@H](O)CO)NC(=O)[C@@H](CCC(=O)O)NC(=O)[C@H](CCC(=O)NC[C@H](O)[C@@H](O)[C@H](O)[C@H](O)CO)NC(=O)[C@@H](CCC(=O)O)NC(=O)[C@H](CCC(=O)NC[C@H](O)[C@@H](O)[C@H](O)[C@H](O)CO)NC(=O)CC[C@H](NC(=O)c4ccc(NCc5cnc6nc(N)[nH]c(=O)c6n5)cc4)C(=O)O)C(=O)O)C(=O)O)cc3)nc12 [^3H-EC1669]
tissue uptake at 10 min ([5]; female, Balb/c, mouse, plasma, sc, total radioactivity, 10 min post-dose, 500 nmol/kg s.c., read-out: found in the plasma): 12 %ID/g
more radioactivity in pooled urine than in 3H-MTX dosed animals [6]: ~14%

CN(Cc1cnc2nc(N)nc(N)c2n1)c1ccc(C(=O)N[C@@H](CCC(=O)O)C(=O)O)cc1 [^3H-MTX, ^3H-methotrexate]
captured by the liver [5, 8]: 31 % ID/g
found in the plasma [5, 8]: 5.2 % ID/g
retention in RBCs, spleen, liver, intestine, and feces ([5]; entire sampling period): consistently higher than that of ^3H-EC1669
radioactivity in pooled feces vs EC1669 dosed animals [6]: twice as much

N.N.[Cl][Pt][Cl] [cisplatin, reference compound]
partial response (PR) [7]: did not produce even a single partial response
